One experiment has as its system TNF-α. As to the kind of experiment: mouse plasma TNF-α ELISA after endotoxin. The experiment is classed as in vivo, mice. The protocol:
Each point represents the average of two experiments compiled from the average of duplicate ELISA measurements with each experimental point representing pooled plasma from three mice.
For ELISA measurements of cytokine levels in plasma, blood was collected by retro-orbital or cardiac puncture of anesthetized mice, immediately centrifuged and the EDTA plasma stored at -70° C. Particulate free plasma was thawed on ice and cytokine levels determined utilizing commercial ELISA assays with normal mouse plasma used to generate standard curves. Murine tumor necrosis factor-α and interleukin-1α kits were purchased from Genzyme (Cambridge, Mass.) and Endogen (Boston, Mass.), respectively. Each data point was an average of two ELISA measurements made from EDTA serum pooled from three mice. The data summarized in Table 3 were compiled from two independent experiments; data from Table 4 and 5 were from single experiments of three mice per data point.
Levels of TNF-α, IL-1α and IL-6 were measured in the plasma of mice as a function of time following treatment with S. abortus endotoxin. […] TNF-α levels peaked within 1 hour of treatment of endotoxin (Table 4 and FIG. 6). Treatment of the mice with CT1501R decreased the levels of TNF-α in the EDTA plasma of endotoxin treated mice at all time points measured. […]
A general note: In an ELISA, binding on a coated surface is turned into a signal by an enzyme label.

Experiment [1] has as its system hair follicles of nu/nu mice. As to the kind of experiment: nude mouse hair studies, topical application. Type of experiment: in vivo. From the text: This example illustrates nude mouse hair studies involving topical application of CT1501R. Six to eight week old, female, nu/nu mice from Charles River Laboratories were housed at Biosupport Research Support Services (Seattle, Wash.) in autoclaved micro isolator units with hyperchlorinated autoclaved water, irradiated rodent chow and kept under a laminar flow hood. Caging was changed weekly, and water was changed twice weekly. The mice were acclimated for 5 days before beginning each study.
The first topical formulation was prepared by adding CT1501R to a heated hydrophilic ointment (USP) at a 1% concentration, and allowed to solidify.
Nude mice were painted twice daily for 16 days with the first topical formulation of CT1501R on the left flank and another compound in the same base on the right flank with sterile applicators. Mice were handled under the laminar flow hood with applicator wearing face mask and sterile gloves. After 16 days, one mouse was sacrificed by cervical dislocation and skin biopsies were taken of the treated areas of the shoulder/flank and from the non-treated area of the dorsal pelvis (rump). Specimens were placed in 10% buffered formalin solution. Biopsies were sent to a veterinary dermopathologist for histopathology. Six weeks following treatment, a second mouse was euthanatized and biopsied the same as the first. Samples were sent for histopathology.
In a second experiment, topical application of CT1501R was performed along with a commercial topical minoxidil preparation (Rogaine®, Upjohn) that is approved for a hair growth indication. Five to six week old, female, nu/nu mice from Bantin and Kingman Universal were housed at Biosupport Research Support Services (Seattle, Wash.) in autoclaved micro isolator units with hyper chlorinated autoclaved water, irradiated rodent chow and kept under a laminar flow hood. Caging was changed weekly, and water was changed twice weekly. Mice were acclimated for 7 days before beginning study, […]

Experiment [2] relates to TNF-α release from LPS-activated mouse peritoneal macrophages. As to the kind of experiment: TNF-α release from LPS stimulated PEC, ELISA. Conditions: Peritoneal macrophage. The experiment is classed as cell-based. The protocol:
R. Cells were isolated and treated with or without various concentrations of CT1501R one hour prior to LPS activation ([…]). Twenty four hours later the supernalants were collected assayed for TNF-α by ELISA (+/-SD).
Murine peritoneal exudate cell macrophages (PEC) were isolated by perfusion of mouse peritoneum and plated into 96-well trays at 5×10^5 cells per well. […] At various times thereafter, supernatants were removed and levels of either TNF-α or IL-1α were assayed using commercial 96-well microtiter immunoassay kits (Genzyme; TNF; Endogen, Boston, Mass.; IL-1α) according to manufacturer's specifications. […] 4000 cells were plated into each well of a 96-well microtiter plate and allowed to incubate for 72 hrs at 37° C. […] Either the HUVEC or U937 cells were stimulated with either LPS, IL-1α or TNF-α for 12 hrs. For the adhesion assay, U937 cells were labeled with the fluorescent viability stain, 2',7'-bis-(2-carboxyethyl)-5-(and-6)-carboxyfluorescein acetoxymethyl ester (BCECF). […] The cells were washed once with full media and 50,000 cells/well added to the HUVEC cultures. The samples were incubated at 37° C. for 30 min, inverted and centrifuged for 10 min at 400×g. After addition of […] Hanks Balanced Salt Solution (HBSS), the microtiter plate was then analyzed on a Millipore Cytofiuor fluorescent plate reader (excitation 488 nm; emission 525 nm). […]

The source of these data is patent US5621102A, “Process for preparing enantiomerically pure xanthine derivatives” (Cell Therapeutics, Inc., priority 1995, dated 1997).

In the case of `C[C@@H](O)CCCCn1c(=O)c2c(ncn2C)n(C)c1=O` [CT1501R, (R)-1-(5-hydroxyhexyl)-3,7-dimethylxanthine], the “decrease of peak plasma TNF-α vs endotoxin only” value in the experiment on TNF-α (0.5 hour post endotoxin) came to 2.5 fold; in the experiment on TNF-α (1 hour post endotoxin) it was 2.6 fold. Also, the “hair follicles, histopathology of treated vs non treated skin sections” value in experiment [1] (first experiment, 1% in hydrophilic ointment, twice daily for 16 days) is on record as “significantly more normal appearing hair follicles than the non treated sections”. For the same compound, the “hair follicles, subjective histopathological examination” value in experiment [1] (second experiment, 60% ETOH, 10% water, 30% PEG base, twice daily, 34 days) is “greatest concentration of hair folicles”. The inhibition at 500 µM in experiment [2] (500 μM, read-out: inhibitory effects, % of the maximal LPS stimulation (1428 pg/ml)) was roughly 40%. Further, in experiment [2] (drug 1 hour before LPS (10 μg/ml LPS), read-out: IC50 for TNF-α inhibition (concentration for 50% inhibition)), the IC50 is roughly 30 µM.
